Test system: K562
Assay: Antiproliferative activity against human K562 cells by MTT assay
Format: functional, cell-based
With COc1cccc(/C(C)=N/NC(=S)NCCCCCC(=O)NO)c1 the IC50 was 1910 nM.
C/C(=N\NC(=S)NCCCCCC(=O)NO)c1cccc(C(F)(F)F)c1 showed an IC50 of 1400 nM.
Work on Cc1ccc(NC(=O)c2ccc(CN3CCN(C)CC3)cc2)cc1Nc1nccc(-c2cccnc2)n1 [IMATINIB] yielded an IC50 of 610 nM.
In the case of O=C(CCCCCNC(=S)NN=C(c1ccccn1)c1ccccn1)NO, the IC50 is reported as 2870 nM.
CN(C)C(=S)NN=C(c1ccccn1)c1ccccn1 showed an IC50 of 3430 nM.
Compound O=C(CCCCCNC(=S)N/N=C(\c1ccccc1)c1cccc([N+](=O)[O-])c1)NO has an IC50 of 1630 nM.

Test system: K562/A02
Assay: Antiproliferative activity against human K562/A02 cells overexpressing P-gp by MTT assay
Format: functional, cell-based
Work on COc1cccc(/C(C)=N/NC(=S)NCCCCCC(=O)NO)c1 yielded an IC50 of 1890 nM.
With C/C(=N\NC(=S)NCCCCCC(=O)NO)c1cccc(C(F)(F)F)c1 the IC50 was 890 nM.
Work on Cc1ccc(NC(=O)c2ccc(CN3CCN(C)CC3)cc2)cc1Nc1nccc(-c2cccnc2)n1 [IMATINIB] yielded an IC50 of 980 nM.
With O=C(CCCCCNC(=S)NN=C(c1ccccn1)c1ccccn1)NO the IC50 was 2180 nM.
CN(C)C(=S)NN=C(c1ccccn1)c1ccccn1 gave an IC50 of 3020 nM.
O=C(CCCCCNC(=S)N/N=C(\c1ccccc1)c1cccc([N+](=O)[O-])c1)NO showed an IC50 of 940 nM.

Test system: not listed separately
Assay: Resistance index, ratio of IC50 for human K562/A02 cells to IC50 for human K562 cells
Format: functional
Parameters: reference not given here
In the case of COc1cccc(/C(C)=N/NC(=S)NCCCCCC(=O)NO)c1, the “Ratio IC50” value is reported as 0.98.
In the case of C/C(=N\NC(=S)NCCCCCC(=O)NO)c1cccc(C(F)(F)F)c1, the “Ratio IC50” value is reported as 0.64.
With Cc1ccc(NC(=O)c2ccc(CN3CCN(C)CC3)cc2)cc1Nc1nccc(-c2cccnc2)n1 [IMATINIB] the “Ratio IC50” value was 1.61.
In the case of O=C(CCCCCNC(=S)NN=C(c1ccccn1)c1ccccn1)NO, the “Ratio IC50” value is reported as 0.76.
In the case of CN(C)C(=S)NN=C(c1ccccn1)c1ccccn1, the “Ratio IC50” value is reported as 0.88.
With O=C(CCCCCNC(=S)N/N=C(\c1ccccc1)c1cccc([N+](=O)[O-])c1)NO the “Ratio IC50” value was 0.58.

Biological target: Histone deacetylase 1 (Homo sapiens, UniProt Q13547)
Sequence (Q13547 whole entry): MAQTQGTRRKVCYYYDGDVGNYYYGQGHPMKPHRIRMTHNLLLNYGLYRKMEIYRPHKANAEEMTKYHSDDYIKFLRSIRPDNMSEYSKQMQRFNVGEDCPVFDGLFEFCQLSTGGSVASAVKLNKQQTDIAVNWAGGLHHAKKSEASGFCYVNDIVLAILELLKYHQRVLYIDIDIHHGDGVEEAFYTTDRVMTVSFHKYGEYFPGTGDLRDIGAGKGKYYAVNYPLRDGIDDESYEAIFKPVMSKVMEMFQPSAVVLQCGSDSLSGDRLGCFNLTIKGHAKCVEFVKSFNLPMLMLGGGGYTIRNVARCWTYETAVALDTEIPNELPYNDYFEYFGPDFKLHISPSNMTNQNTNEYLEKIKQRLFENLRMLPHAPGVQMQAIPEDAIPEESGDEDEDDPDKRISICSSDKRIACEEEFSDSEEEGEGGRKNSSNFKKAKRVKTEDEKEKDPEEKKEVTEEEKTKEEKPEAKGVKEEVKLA
Assay: Inhibition of recombinant human HDAC1 using Boc-Lys(Ac)-AMC as substrate incubated for 60 mins by fluorimetric assay
In the case of CN(C)C(=S)NN=C(c1ccccn1)c1ccccn1, the IC50 is reported as > 5000 nM.
O=C(CCCCCNC(=S)N/N=C(\c1ccccc1)c1cccc([N+](=O)[O-])c1)NO gave an IC50 of 71.1 nM.

Biological target: T1, Protein deacetylase HDAC6 (Homo sapiens, UniProt Q9UBN7)
T1 sequence (Q9UBN7 whole entry): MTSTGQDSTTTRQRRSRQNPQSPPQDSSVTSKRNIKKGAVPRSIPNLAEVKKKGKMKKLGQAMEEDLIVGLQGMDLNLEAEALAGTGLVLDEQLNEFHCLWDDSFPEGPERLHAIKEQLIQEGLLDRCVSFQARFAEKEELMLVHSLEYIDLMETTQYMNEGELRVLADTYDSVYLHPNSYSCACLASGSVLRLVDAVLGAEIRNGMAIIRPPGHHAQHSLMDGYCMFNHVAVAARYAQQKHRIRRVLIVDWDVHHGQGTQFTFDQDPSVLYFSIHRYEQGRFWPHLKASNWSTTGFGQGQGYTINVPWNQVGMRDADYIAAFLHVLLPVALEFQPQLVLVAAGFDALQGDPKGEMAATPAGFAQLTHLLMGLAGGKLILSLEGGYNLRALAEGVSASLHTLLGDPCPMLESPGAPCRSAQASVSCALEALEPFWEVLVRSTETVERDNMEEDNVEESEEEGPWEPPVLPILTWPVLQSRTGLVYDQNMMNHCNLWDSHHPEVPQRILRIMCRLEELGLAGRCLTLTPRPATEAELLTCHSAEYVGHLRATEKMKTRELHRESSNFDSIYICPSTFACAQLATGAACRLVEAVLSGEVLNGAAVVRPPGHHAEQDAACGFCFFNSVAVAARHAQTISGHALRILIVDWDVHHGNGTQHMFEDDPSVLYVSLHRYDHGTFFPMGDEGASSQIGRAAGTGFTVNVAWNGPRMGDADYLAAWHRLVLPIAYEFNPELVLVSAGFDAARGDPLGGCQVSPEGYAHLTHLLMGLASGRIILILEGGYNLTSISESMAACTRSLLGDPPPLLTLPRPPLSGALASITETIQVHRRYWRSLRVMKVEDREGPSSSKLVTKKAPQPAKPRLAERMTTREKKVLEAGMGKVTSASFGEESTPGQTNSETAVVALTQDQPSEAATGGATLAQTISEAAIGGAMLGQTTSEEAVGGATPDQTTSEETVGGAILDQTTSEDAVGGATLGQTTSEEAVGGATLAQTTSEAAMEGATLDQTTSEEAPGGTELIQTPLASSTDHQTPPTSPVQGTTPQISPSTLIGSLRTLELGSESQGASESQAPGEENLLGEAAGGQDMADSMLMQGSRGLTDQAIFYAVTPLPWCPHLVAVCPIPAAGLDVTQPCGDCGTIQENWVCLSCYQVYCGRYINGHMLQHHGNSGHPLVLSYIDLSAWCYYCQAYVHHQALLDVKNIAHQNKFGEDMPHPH
Assay: Inhibition of recombinant human HDAC6 using Boc-Lys(Ac)-AMC as substrate incubated for 60 mins by fluorimetric assay
In the case of CN(C)C(=S)NN=C(c1ccccn1)c1ccccn1, the IC50 is reported as > 5000 nM.
Compound O=C(CCCCCNC(=S)N/N=C(\c1ccccc1)c1cccc([N+](=O)[O-])c1)NO has an IC50 of 46.8 nM.

Biological target: T2, Histone deacetylase 8 (Homo sapiens, UniProt Q9BY41)
T2 sequence (Q9BY41 whole entry): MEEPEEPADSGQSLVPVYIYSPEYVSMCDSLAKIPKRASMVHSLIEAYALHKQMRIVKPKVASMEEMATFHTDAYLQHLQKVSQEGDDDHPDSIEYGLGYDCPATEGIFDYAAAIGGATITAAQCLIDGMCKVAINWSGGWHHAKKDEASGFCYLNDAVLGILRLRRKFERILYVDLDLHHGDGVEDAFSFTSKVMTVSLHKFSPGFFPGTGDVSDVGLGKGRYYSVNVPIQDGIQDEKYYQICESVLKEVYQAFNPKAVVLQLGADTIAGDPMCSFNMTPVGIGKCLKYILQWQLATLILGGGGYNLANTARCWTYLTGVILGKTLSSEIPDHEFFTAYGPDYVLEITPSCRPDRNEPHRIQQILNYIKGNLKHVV
Assay: Inhibition of recombinant human HDAC8 using Boc-Lys(Ac)-AMC as substrate incubated for 60 mins by fluorimetric assay
In the case of CN(C)C(=S)NN=C(c1ccccn1)c1ccccn1, the IC50 is reported as > 5000 nM.
In the case of O=C(CCCCCNC(=S)N/N=C(\c1ccccc1)c1cccc([N+](=O)[O-])c1)NO, the IC50 is reported as > 5000 nM.
